Data taken from PubChem BioAssay AID256 (DTP/NCI, 2004).
Toxic doses and inconclusive results are not listed. The calls were made as follows: active = survival T/C of 150% or more; inactive = T/C below 125% in these data.

System: CD2F1 mice, L1210 leukemia ip, survival T/C
Test: NCI In Vivo Anticancer Drug Screen. Data for tumor model L1210 Leukemia (intraperitoneal) in CD2F1 (CDF1) mice
Conditions: endpoint: mean survival time, higher = longer survival
Method in brief: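 Compound-dosed mice with transplantable tumor versus matched vehicle controls; endpoint ratio T/C reported.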

[1] = dose: 100.0 mg/kg/injection, schedule: Q01DX009 (ip), vehicle: saline with Tween-80
[2] = dose: 200.0 mg/kg/injection, schedule: Q01DX009 (ip), vehicle: saline with Tween-80
[3] = dose: 400.0 mg/kg/injection, schedule: Q01DX009 (ip), vehicle: saline with Tween-80
[4] = dose: 50.0 mg/kg/injection, schedule: Q01DX009 (ip), vehicle: saline with Tween-80

Measured: T/C

COc1ccc(OC)c(C=NCCN=Cc2cc(OC)ccc2OC)c1
inactive: [1] 87 % of control | dose: 100.0 mg/kg/injection, schedule: Q04DX003 (ip), vehicle: saline with Tween-80 90 % of control | [2] 95 % of control | dose: 200.0 mg/kg/injection, schedule: Q04DX003 (ip), vehicle: saline with Tween-80 88 % of control | [3] 87 % of control | dose: 400.0 mg/kg/injection, schedule: Q04DX003 (ip), vehicle: saline with Tween-80 87 % of control

CC(C)C(NC(=O)c1cccnc1)C(=O)O (configuration not stated)
inactive: dose: 50.0 mg/kg/injection, schedule: Q04DX002 (ip), vehicle: saline with Tween-80 100 % of control | dose: 100.0 mg/kg/injection, schedule: Q01DX001 (ip), vehicle: saline with Tween-80 108 % of control | dose: 100.0 mg/kg/injection, schedule: Q04DX002 (ip), vehicle: saline with Tween-80 100 % of control | dose: 200.0 mg/kg/injection, schedule: Q01DX001 (ip), vehicle: saline with Tween-80 108 % of control | dose: 200.0 mg/kg/injection, schedule: Q04DX002 (ip), vehicle: saline with Tween-80 104 % of control | dose: 400.0 mg/kg/injection, schedule: Q01DX001 (ip), vehicle: saline with Tween-80 97 % of control

Cc1ccc(NC(=O)N2CCN(C)CC2)cc1[N+](=O)[O-]
inactive: [4] 94 % of control | [1] 90 % of control | [2] 94 % of control

O=C1c2ccccc2C(=O)N1CCCl
inactive: [1] 91 % of control | [2] 91 % of control | [3] 92 % of control

C=CCCC(Cc1ccccc1)C1=NC(C)(C)CC(C)O1 (configuration not stated)
inactive: dose: 6.25 mg/kg/injection, schedule: Q01DX001 (ip), vehicle: saline 102 % of control | dose: 12.5 mg/kg/injection, schedule: Q01DX001 (ip), vehicle: saline 96 % of control | dose: 25.0 mg/kg/injection, schedule: Q01DX001 (ip), vehicle: saline 97 % of control

CC1=C(C)C(=O)O[C@@H]([C@](C)(O)[C@]2(O)CC[C@@]3(O)[C@@H]4C[C@H]5O[C@]56CC=CC(=O)[C@]6(C)[C@H]4CC[C@]23C)C1
inactive: dose: 3.12 mg/kg/injection, schedule: Q01DX009 (ip), vehicle: saline with Tween-80 104 % of control | dose: 3.12 mg/kg/injection, schedule: Q01DX009 (ip), vehicle: saline 112 % of control | dose: 6.25 mg/kg/injection, schedule: Q01DX009 (ip), vehicle: saline with Tween-80 105 % of control | dose: 6.25 mg/kg/injection, schedule: Q01DX009 (ip), vehicle: saline 123 % of control | dose: 12.5 mg/kg/injection, schedule: Q01DX009 (ip), vehicle: saline 112 % of control | dose: 25.0 mg/kg/injection, schedule: Q01DX009 (ip), vehicle: saline with Tween-80 107 % of control | dose: 25.0 mg/kg/injection, schedule: Q01DX009 (ip), vehicle: saline 110 % of control | [4] 115 % of control | dose: 50.0 mg/kg/injection, schedule: Q01DX009 (ip), vehicle: saline 98 % of control | [1] 107 % of control | dose: 100.0 mg/kg/injection, schedule: Q01DX009 (ip), vehicle: saline 93 % of control

ICC1CCC(CI)CC1 (configuration not stated)
inactive: dose: 100.0 mg/kg/injection, schedule: Q01DX001 (ip), vehicle: saline 98 % of control | dose: 200.0 mg/kg/injection, schedule: Q01DX001 (ip), vehicle: saline 96 % of control | dose: 400.0 mg/kg/injection, schedule: Q01DX001 (ip), vehicle: saline 93 % of control

CCOC(=O)C(C)(Br)C(=O)OCC
inactive: [4] 104 % of control | [1] 105 % of control
